Measured values taken from patent US11377425B1, “Small molecule modulators of IL-17” (LEO Pharma A/S, priority 2018, dated 2022).

The compounds below were run against T1, human IL-17AA (Homo sapiens, UniProt Q16552) (assay: IL-8 release assay in human epithelial keratinocytes adult (HEKa)). Conditions: HEKa cells, 3 ng/mL HEK-human IL-17AA + 10 ng/mL human TNFalpha; read-out: Rel EC50 IL-8 release assay.
T1 construct: host or cells: HEK (human embryonic kidney) cells
T1 sequence (Q16552 24-155): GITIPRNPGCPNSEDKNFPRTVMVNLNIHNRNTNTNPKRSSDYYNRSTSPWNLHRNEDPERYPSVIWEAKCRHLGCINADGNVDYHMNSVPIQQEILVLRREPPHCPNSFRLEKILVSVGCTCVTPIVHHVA
Type: cell-based
How it was run: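 Adult human epidermal keratinocytes stimulated 68-72 h at 37 °C with 3 ng/mL HEK-derived human IL-17AA plus 10 ng/mL TNF-alpha (final) in the presence of compound; TNF-alpha alone defines 100% inhibition. Secreted IL-8 measured by HTRF as percent of controls; relative IC50/Emax from four-parameter fit (r^2>0.9), cytotoxicity by PrestoBlue.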

Question: Cc1n[nH]c(C)c1-c1ccc(NC(=O)[C@H](CC(C)C)NC(=O)c2ccnn2C)cc1 [Example 298] was tested. Which EC50 did it give?
Answer: > 1000 nM

Question: Which EC50 does the source give for CCn1nccc1C(=O)NC(C(=O)Nc1ccc(-c2c(C)n[nH]c2C)cc1)C1CCCCCCC1 (single isomer, unassigned) [Example 154, N-[1-cyclooctyl-2-[4-(3,5-dimethyl-1H-pyrazol-4-yl)anilino]-2-oxo-ethyl]-2-ethyl-pyrazole-3-carboxamide] here?
Answer: 100 to 1000 nM

Question: How did the EC50 turn out when Cc1n[nH]c(C)c1-c1ccc(NC(=O)[C@@H](NC(=O)c2ccnn2[C@@H](C)CO)C(C)C2CCC2)cc1 (single isomer, unassigned) [Example 174] was run?
Answer: 100 to 1000 nM

Question: Cc1ncn(C)c1-c1ccc(NC(=O)C(NC(=O)c2ccnn2C)C(C2CC2)C2CC2)cc1 (centres unmarked) [Example 332, N-[1-(dicyclopropylmethyl)-2-[4-(3,5-dimethylimidazol-4-yl)anilino]-2-oxo-ethyl]-2-methyl-pyrazole-3-carboxamide] was tested. Which EC50 did it give?
Answer: 100 to 1000 nM

Question: For Cn1cncc1-c1ccc(NC(=O)[C@H](CC2CCCCC2)NC(=O)OC(C)(C)C)cc1 [Example 93, tert-butyl N-[(1S)-1-(cyclohexylmethyl)-2-[4-(3-methylimidazol-4-yl)anilino]-2-oxo-ethyl]carbamate], which EC50 is on record?
Answer: > 1000 nM

Question: For Cn1cnnc1-c1ccc(NC(=O)[C@@H](NC(=O)c2ccnn2C)C2CCCCC2)cc1 [Example 352, N-[(1S)-1-cyclohexyl-2-[4-(4-methyl-1,2,4-triazol-3-yl)anilino]-2-oxo-ethyl]-2-methyl-pyrazole-3-carboxamide], which EC50 is on record?
Answer: > 1000 nM

Question: How did the EC50 turn out when Cc1n[nH]c(C)c1-c1ccc(NC(=O)[C@@H](NC(=O)c2ccnn2C)C(C)CC2CC2)cc1 (single isomer, unassigned) [Example 160] was run?
Answer: 100 to 1000 nM

Question: How did the EC50 turn out when Cc1n[nH]c(C)c1-c1ccc(NC(=O)[C@@H](NC(=O)c2ccnn2C)C(C)C)cc1 [Example 42, N-[(1S)-1-[[4-(3,5-dimethyl-1H-pyrazol-4-yl)phenyl]carbamoyl]-2-methyl-propyl]-2-methyl-pyrazole-3-carboxamide; 2,2,2-trifluoroacetic acid] was run?
Answer: > 1000 nM

Question: Cc1n[nH]c(C)c1-c1ccc(NC(=O)C(NC(=O)c2ccnn2C(C)C)C2CCC(C)(C)C2)cc1 (centres unmarked) [Example 265, N-[1-(3,3-dimethylcyclopentyl)-2-[4-(3,5-dimethyl-1H-pyrazol-4-yl)anilino]-2-oxo-ethyl]-2-isopropyl-pyrazole-3-carboxamide] was tested. Which EC50 did it give?
Answer: 100 to 1000 nM

Question: How did the EC50 turn out when Cc1n[nH]c(C)c1-c1ccc(NC(=O)[C@@H](NC(=O)c2ccnn2CCC(F)(F)F)C(C2CC2)C2CC2)cc1 [Example 130, N-[(1S)-1-(dicyclopropylmethyl)-2-[4-(3,5-dimethyl-1H-pyrazol-4-yl)anilino]-2-oxo-ethyl]-2-(3,3,3-trifluoropropyl)pyrazole-3-carboxamide] was run?
Answer: < 100 nM

Question: For CCn1nccc1C(=O)N[C@H](C(=O)Nc1ccc(-c2c(C)n[nH]c2C)cc1)C(C)C1CCC1 (single isomer, unassigned) [Example 192], which EC50 is on record?
Answer: < 100 nM

Question: Cc1ncn(C)c1-c1ccc(NC(=O)[C@@H](NC(=O)c2ccnn2C)C(c2ccccc2)c2ccccc2)cc1 [Example 338, N-[(1S)-1-benzhydryl-2-[4-(3,5-dimethylimidazol-4-yl)anilino]-2-oxo-ethyl]-2-methyl-pyrazole-3-carboxamide] was tested. Which EC50 did it give?
Answer: 100 to 1000 nM

Question: For Cc1n[nH]c(C)c1-c1ccc(NC(=O)[C@@H](NC(=O)c2ccnn2C)[C@H]2CC[C@H](C)CC2)cc1 [Example 125, Trans N-[(1S)-2-[4-(3,5-dimethyl-1H-pyrazol-4-yl)anilino]-1-(4-methylcyclohexyl)-2-oxo-ethyl]-2-methyl-pyrazole-3-carboxamide], which EC50 is on record?
Answer: < 100 nM

Question: For Cc1n[nH]c(C)c1-c1ccc(NC(=O)[C@@H](NC(=O)c2ccnn2C)C(C(C)C)C(C)C)cc1 [Example 244], which EC50 is on record?
Answer: < 100 nM

Question: How did the EC50 turn out when Cc1n[nH]c(C)c1-c1ccc(NC(=O)[C@@H](NC(=O)c2ccnn2C)C(C)C2CCC2)cc1 (single isomer, unassigned) [Example 194] was run?
Answer: < 100 nM

Question: For Cc1n[nH]c(C)c1-c1ccc(NC(=O)[C@@H](NC(=O)N2CCCCC2CCCO)C2CCCCC2)cc1 (single isomer, unassigned) [Example 461], which EC50 is on record?
Answer: > 1000 nM

Question: With Cc1n[nH]c(C)c1-c1ccc(NC(=O)C(NC(=O)c2ccnn2C)C(C2CC2)C2CC2)cc1 (centres unmarked) [Example 30, N-[1-(dicyclopropylmethyl)-2-[4-(3,5-dimethyl-1 pyrazol-4-yl)anilino]-2-oxo-ethyl]-2-methyl-pyrazole-3-carboxamide] as the compound, how does the EC50 read?
Answer: 100 to 1000 nM

Question: For CCC(c1ccccc1)C(NC(=O)c1ccnn1C)C(=O)Nc1ccc(-c2c(C)n[nH]c2C)cc1 (single isomer, unassigned) [Example 227], which EC50 is on record?
Answer: > 1000 nM

Question: Which EC50 does the source give for Cc1n[nH]c(C)c1-c1ccc(NC(=O)[C@@H](NC(=O)OCCCCO)C(C2CC2)C2CC2)cc1 [Example 479, 4-hydroxy butyl N-[(1S)-1-(dicyclopropylmethyl)-2-[4-(3,5-dimethyl-1H-pyrazol-4-yl)anilino]-2-oxo-ethyl]carbamate] here?
Answer: 100 to 1000 nM

Question: Which EC50 does the source give for CCn1nccc1C(=O)N[C@H](C(=O)Nc1ccc(-c2c(C)ncn2C)c(O)c1)C(C1CC1)C1CC1 [Example 362, N-[(1S)-1-(dicyclopropylmethyl)-2-[4-(3,5-dimethylimidazol-4-yl)-3-hydroxy-anilino]-2-oxo-ethyl]-2-ethyl-pyrazole-3-carboxamide] here?
Answer: 100 to 1000 nM

Question: CCc1n[nH]c(CC)c1-c1ccc(NC(=O)[C@@H](NC(=O)c2ccnn2CC)C(C2CC2)C2CC2)cc1 [Example 396, N-[(1S)-1-(dicyclopropylmethyl)-2-[4-(3,5-diethyl-1H-pyrazol-4-yl)anilino]-2-oxo-ethyl]-2-ethyl-pyrazole-3-carboxamide] was tested. Which EC50 did it give?
Answer: < 100 nM

Question: For Cc1n[nH]c(CO)c1-c1ccc(NC(=O)[C@@H](NC(=O)c2ccnn2C)C2CCCCC2)cc1 [Example 445, N-[(1S)-1-cyclohexyl-2-[4-[5-(hydroxymethyl)-3-methyl-1H-pyrazol-4-yl]anilino]-2-oxo-ethyl]-2-methyl-pyrazole-3-carboxamide], which EC50 is on record?
Answer: 100 to 1000 nM

Question: Which EC50 does the source give for CC(C)c1nc[nH]c1-c1ccc(NC(=O)[C@@H](NC(=O)c2ccnn2C(C)C)C(C2CC2)C2CC2)cc1 [Example 380, N-[(1S)-1-(dicyclopropylmethyl)-2-[4-(4-isopropyl-1H-imidazol-5-yl)anilino]-2-oxo-ethyl]-2-isopropyl-pyrazole-3-carboxamide] here?
Answer: 100 to 1000 nM

Question: Which EC50 does the source give for Cc1n[nH]c(C)c1-c1ccc(NC(=O)[C@@H](NC(=O)c2ccn(C)n2)C(C2CC2)C2CC2)cc1 [Example 198, N-[(1S)-1-(dicyclopropylmethyl)-2-[4-(3,5-dimethyl-1H-pyrazol-4-yl)anilino]-2-oxo-ethyl]-1-methyl-pyrazole-3-carboxamide] here?
Answer: > 1000 nM

Question: For Cc1n[nH]c(C)c1-c1ccc(NC(=O)[C@@H](NC(=O)c2c(C)ncn2C)C2CCCCC2)cc1 [Example 50, N-[(1S)-1-cyclohexyl-2-[4-(3,5-dimethyl-1H-pyrazol-4-yl)anilino]-2-oxo-ethyl]-3,5-dimethyl-imidazole-4-carboxamide], which EC50 is on record?
Answer: > 1000 nM

Question: Cc1n[nH]c(C)c1-c1ccc(NC(=O)[C@@H](NC(=O)c2ccnn2C)[C@@H]2CCCc3c(F)cc(Br)cc32)cc1 [Example 262] was tested. Which EC50 did it give?
Answer: 100 to 1000 nM

Question: How did the EC50 turn out when Cc1n[nH]c(C)c1-c1ccc(NC(=O)C(NC(=O)c2ccnn2C)[C@H]2CCCc3c(F)cc(F)cc32)cc1 (single isomer, unassigned) [Example 255] was run?
Answer: < 100 nM

Question: How did the EC50 turn out when Cc1n[nH]c(C)c1-c1ccc(NC(=O)[C@@H](NC(=O)c2ccnn2C)[C@H]2CCc3ccccc32)cc1 [Example 79, N-[(1S)-2-[4-(3,5-dimethyl-1H-pyrazol-4-yl)anilino]-1-[(1S)-indan-1-yl]-2-oxo-ethyl]-2-methyl-pyrazole-3-carboxamide] was run?
Answer: < 100 nM

Question: For Cc1n[nH]c(C)c1-c1ccc(NC(=O)[C@@H](NC(=O)c2ccnn2C)C(C)CC(C)(C)C)cc1 (mixture of isomers) [Example 196], which EC50 is on record?
Answer: < 100 nM

Question: For CCn1nccc1C(=O)NC(C(=O)Nc1ccc(-c2c(C)n[nH]c2C)cc1)C(C1CCC1)C1CCC1 (racemic) [Example 35, N-[1-[di(cyclobutyl)methyl]-2-[4-(3,5-dimethyl-1H-pyrazol-4-yl)anilino]-2-oxo-ethyl]-2-ethyl-pyrazole-3-carboxamide], which EC50 is on record?
Answer: < 100 nM

Question: With Cc1[nH]nc(C(C)O)c1-c1ccc(NC(=O)[C@@H](NC(=O)OC(C)(C)C)C(c2ccccc2)c2ccccc2)cc1 (stereo partly drawn) [Example 434, tert-butyl N-[(1S)-1-benzhydryl-2-[4-[5-(1-hydroxyethyl)-3-methyl-1H-pyrazol-4-yl]anilino]-2-oxo-ethyl]carbamate] as the compound, how does the EC50 read?
Answer: 100 to 1000 nM

Question: With Cc1cn[nH]c1-c1ccc(NC(=O)[C@@H](NC(=O)c2ccnn2C(C)C)C(C2CC2)C2CC2)cc1 [Example 382, N-[(1S)-1-(dicyclopropylmethyl)-2-[4-(4-methyl-1H-pyrazol-5-yl)anilino]-2-oxo-ethyl]-2-isopropyl-pyrazole-3-carboxamide] as the compound, how does the EC50 read?
Answer: 100 to 1000 nM

Question: For CCOc1n[nH]c(C)c1-c1ccc(NC(=O)[C@@H](NC(=O)c2ccnn2C)C2CCCCC2)cc1 [Example 359, N-[(1S)-1-cyclohexyl-2-[4-(5-ethoxy-3-methyl-1H-pyrazol-4-yl)anilino]-2-oxo-ethyl]-2-methyl-pyrazole-3-carboxamide], which EC50 is on record?
Answer: 100 to 1000 nM

Question: Which EC50 does the source give for Cc1ncsc1CC(=O)N[C@H](C(=O)Nc1ccc(-c2c(C)n[nH]c2C)cc1)C1CCCCC1 [Example 51, (2S)-2-cyclohexyl-N-[4-(3,5-dimethyl-1H-pyrazol-4-yl)phenyl]-2-[[2-(4-methylthiazol-5-yl)acetyl]amino]acetamide] here?
Answer: > 1000 nM

Question: How did the EC50 turn out when CCC(c1ccccc1)C(NC(=O)c1ccnn1C)C(=O)Nc1ccc(-c2c(C)n[nH]c2C)cc1 (single isomer, unassigned) [Example 228] was run?
Answer: 100 to 1000 nM
